Consider 2 compounds from ChEMBL document CHEMBL5034019, “Discovery of the Next-Generation Pan-TRK Kinase Inhibitors for the Treatment of Cancer” (J Med Chem, 2021).

Values after ≈ are worked out from the molar mass of the structure shown. Active and inactive are the calls of the source. No cut-off for these calls is given here. Some results are limits rather than exact numbers.

Data set [1] can be described thus: C0 in male Sprague-Dawley rat at 2 mg/kg, iv measured up to 24 hrs by LC/MS/MS analysis. The note with it: in vivo. The data set is classed as ADME, organism-based.
Data set [2] concerns Mast/stem cell growth factor receptor Kit (Homo sapiens), P10721 [D816H]. Put plainly: Inhibition of recombinant human C-Kit D816H mutant (544 to end residues) assessed as residual activity at 0.5 uM poly(Glu, Tyr) 4:1 as substrate incubated 40 mins in presence of [gamma-33ATP] by scintillation counting based radiometry assay relative to control.
Chain of Mast/stem cell growth factor receptor Kit (Homo sapiens), P10721 [D816H] (P10721 whole entry D816H): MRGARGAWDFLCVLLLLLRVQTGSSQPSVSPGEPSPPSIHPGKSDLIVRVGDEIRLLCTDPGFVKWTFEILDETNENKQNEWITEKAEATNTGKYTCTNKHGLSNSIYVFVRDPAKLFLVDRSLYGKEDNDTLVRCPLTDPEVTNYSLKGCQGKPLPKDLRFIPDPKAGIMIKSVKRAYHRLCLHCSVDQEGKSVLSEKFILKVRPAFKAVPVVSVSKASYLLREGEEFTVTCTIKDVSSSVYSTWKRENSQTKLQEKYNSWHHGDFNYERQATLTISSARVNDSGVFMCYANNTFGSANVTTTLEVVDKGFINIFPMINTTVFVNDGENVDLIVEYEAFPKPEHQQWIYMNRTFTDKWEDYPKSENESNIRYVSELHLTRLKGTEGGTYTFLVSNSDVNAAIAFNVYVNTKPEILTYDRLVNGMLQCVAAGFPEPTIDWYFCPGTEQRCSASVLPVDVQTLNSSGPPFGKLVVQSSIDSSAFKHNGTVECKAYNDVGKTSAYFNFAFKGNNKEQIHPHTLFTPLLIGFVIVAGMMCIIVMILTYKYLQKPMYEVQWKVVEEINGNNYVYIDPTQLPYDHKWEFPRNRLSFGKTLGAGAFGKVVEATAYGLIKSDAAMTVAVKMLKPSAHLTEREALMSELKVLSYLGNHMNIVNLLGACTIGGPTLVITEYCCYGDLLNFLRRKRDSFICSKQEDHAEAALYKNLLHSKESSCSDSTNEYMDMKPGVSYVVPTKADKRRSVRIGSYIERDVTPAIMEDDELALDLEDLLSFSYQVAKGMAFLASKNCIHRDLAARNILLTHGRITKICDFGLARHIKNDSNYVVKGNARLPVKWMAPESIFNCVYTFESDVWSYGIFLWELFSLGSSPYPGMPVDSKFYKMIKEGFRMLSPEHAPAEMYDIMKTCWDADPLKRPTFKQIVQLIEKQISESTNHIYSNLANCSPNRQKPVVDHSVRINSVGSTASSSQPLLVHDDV
Data set [3] in a line: Kinetic solubility of the compound. The data set is classed as physicochemical. Conditions: read-out: Kinetic_solubility.
Data set [4] deals with Hepatocyte growth factor receptor (Homo sapiens), P08581 [Y1248D]. The data set is described as follows: Inhibition of recombinant human Met Y1248D mutant (974 to end residues) assessed as residual activity at 0.5 uM using KKKGQEEEYVFIE as substrate incubated for 40 mins in presence of [gamma-33P]-ATP by scintillation counting method relative to control.
The target in data set [5] is Receptor-interacting serine/threonine-protein kinase 2 (Homo sapiens) (UniProt O43353). Put plainly: Inhibition of recombinant human RIPK2 (1 to 299 residues) assessed as residual activity at 0.5 uM using myelin basic protein as substrate incubated for 120 mins in presence of [gamma33P]ATP by scintillation counting based radiometry assay relative to control.
Chain of Receptor-interacting serine/threonine-protein kinase 2 (Homo sapiens) (O43353 whole entry, the tested form may be a part): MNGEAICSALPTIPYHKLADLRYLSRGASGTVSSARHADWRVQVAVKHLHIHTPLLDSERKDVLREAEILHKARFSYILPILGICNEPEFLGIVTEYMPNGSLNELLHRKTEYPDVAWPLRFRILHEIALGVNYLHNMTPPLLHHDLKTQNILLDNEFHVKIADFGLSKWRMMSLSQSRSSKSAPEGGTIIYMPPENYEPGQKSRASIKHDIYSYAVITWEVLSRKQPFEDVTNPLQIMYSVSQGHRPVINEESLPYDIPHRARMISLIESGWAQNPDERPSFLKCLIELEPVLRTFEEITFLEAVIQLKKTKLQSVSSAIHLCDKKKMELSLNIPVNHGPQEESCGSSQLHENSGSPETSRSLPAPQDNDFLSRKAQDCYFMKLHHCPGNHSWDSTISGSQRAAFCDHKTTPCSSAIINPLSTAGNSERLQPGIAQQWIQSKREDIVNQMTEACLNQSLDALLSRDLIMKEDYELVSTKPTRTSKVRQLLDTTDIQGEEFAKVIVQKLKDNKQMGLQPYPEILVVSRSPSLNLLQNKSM
For data set [6], the system named is BaF3. Put plainly: Antitumor activity against mouse BaF3 cells transfected with LMNA-NTRK1 xenografted in mouse assessed as tumor growth inhibition at 5 to 20 mg/kg, po administered once daily for 21 days and measured twice weekly. Conditions: dose 5-20 mg/kg, time 21.0 day.
Data set [7] deals with Epidermal growth factor receptor (Homo sapiens), P00533 [T790M]. The data set is described as follows: Inhibition of recombinant human EGFR T790M mutant (696 to end residues) assessed as residual activity at 0.5 uM using poly(Glu, Tyr) 4:1 as substrate at 40 mins in presence of [gamma-33ATP] by scintillation counting based radiometry assay relative to control.
A short description of data set [8]: Tmax in female Sprague-Dawley rat at 10 mg/kg, po measured up to 24 hrs by LC-MS analysis. The data set is classed as ADME, organism-based. The note with it: in vivo.
For data set [9], the target named is Macrophage-stimulating protein receptor (Homo sapiens) (UniProt Q04912). Put plainly: Inhibition of recombinant human Ron (983 to end residues) assessed as residual activity at 0.5 uM using GGMEDIYFEFMGGKKK as substrate incubated for 40 mins in presence of [gamma33P]ATP by scintillation counting based radiometry assay relative to control.
Chain of Macrophage-stimulating protein receptor (Homo sapiens) (Q04912 25-304 limits assumed): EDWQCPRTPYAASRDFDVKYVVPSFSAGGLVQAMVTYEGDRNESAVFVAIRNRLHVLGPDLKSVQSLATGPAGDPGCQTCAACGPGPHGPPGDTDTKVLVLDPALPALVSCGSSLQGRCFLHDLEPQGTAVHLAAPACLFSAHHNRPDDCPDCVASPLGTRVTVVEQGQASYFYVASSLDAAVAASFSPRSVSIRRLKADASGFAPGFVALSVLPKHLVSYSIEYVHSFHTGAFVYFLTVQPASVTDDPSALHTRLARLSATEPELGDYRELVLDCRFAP
Chain of Macrophage-stimulating protein receptor (Homo sapiens) (Q04912 310-1400 limits assumed): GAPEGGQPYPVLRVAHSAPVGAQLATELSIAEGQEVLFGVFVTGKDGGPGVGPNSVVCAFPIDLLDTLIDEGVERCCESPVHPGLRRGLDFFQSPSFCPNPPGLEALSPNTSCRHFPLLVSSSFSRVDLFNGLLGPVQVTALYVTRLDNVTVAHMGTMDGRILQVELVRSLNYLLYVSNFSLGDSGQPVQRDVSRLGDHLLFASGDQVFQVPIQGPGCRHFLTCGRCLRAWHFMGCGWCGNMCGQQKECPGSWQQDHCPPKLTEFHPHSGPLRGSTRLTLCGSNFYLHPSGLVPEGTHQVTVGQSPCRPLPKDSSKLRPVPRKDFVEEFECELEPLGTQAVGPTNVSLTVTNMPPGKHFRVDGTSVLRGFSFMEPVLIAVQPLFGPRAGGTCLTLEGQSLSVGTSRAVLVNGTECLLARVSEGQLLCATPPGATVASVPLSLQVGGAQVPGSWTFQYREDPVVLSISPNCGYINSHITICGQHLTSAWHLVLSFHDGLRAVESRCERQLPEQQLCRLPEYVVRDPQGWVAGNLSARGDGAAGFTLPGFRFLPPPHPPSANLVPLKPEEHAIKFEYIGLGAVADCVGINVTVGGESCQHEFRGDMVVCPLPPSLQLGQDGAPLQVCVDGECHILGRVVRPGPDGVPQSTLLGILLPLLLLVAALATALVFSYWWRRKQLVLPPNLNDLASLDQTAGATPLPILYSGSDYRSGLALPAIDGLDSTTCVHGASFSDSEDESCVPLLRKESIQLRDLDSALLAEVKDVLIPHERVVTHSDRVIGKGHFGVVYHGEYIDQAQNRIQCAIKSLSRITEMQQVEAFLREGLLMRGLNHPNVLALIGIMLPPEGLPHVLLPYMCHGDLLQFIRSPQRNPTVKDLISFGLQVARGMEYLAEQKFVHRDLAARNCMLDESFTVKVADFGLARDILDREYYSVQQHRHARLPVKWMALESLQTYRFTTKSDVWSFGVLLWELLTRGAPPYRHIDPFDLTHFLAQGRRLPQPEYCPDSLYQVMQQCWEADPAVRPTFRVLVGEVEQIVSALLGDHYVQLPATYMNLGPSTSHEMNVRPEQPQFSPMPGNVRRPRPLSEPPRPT
The target in data set [10] is Receptor-interacting serine/threonine-protein kinase 1 (Homo sapiens) (UniProt Q13546). Put plainly: Inhibition of recombinant human RIPK1 (8 to 322 residues) assessed as residual activity at 0.5 uM using myelin basic protein as substrate incubated for 40 mins in presence of [gamma33P]ATP by scintillation counting based radiometry assay relative to control.
Chain of Receptor-interacting serine/threonine-protein kinase 1 (Homo sapiens) (Q13546 whole entry, the tested form may be a part): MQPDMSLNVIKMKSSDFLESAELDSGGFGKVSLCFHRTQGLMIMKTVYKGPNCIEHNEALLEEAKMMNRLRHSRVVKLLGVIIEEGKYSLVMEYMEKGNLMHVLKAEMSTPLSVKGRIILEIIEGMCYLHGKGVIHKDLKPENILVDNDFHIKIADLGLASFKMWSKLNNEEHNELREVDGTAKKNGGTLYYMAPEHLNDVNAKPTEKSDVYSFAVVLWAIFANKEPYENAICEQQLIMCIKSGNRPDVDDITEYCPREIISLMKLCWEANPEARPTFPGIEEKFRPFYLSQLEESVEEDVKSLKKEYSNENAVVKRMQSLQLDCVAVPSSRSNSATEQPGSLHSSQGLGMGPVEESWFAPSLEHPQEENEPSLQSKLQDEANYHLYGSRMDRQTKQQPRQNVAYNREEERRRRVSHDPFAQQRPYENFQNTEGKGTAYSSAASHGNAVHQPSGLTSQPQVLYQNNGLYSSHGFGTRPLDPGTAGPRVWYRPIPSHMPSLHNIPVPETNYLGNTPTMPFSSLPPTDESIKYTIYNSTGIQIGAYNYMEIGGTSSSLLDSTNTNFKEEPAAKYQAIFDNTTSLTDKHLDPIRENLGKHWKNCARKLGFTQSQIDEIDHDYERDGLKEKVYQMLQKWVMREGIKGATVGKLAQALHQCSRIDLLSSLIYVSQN
Data set [11] is described as follows: Cmax in male Sprague-Dawley rat at 10 mg/kg, po measured up to 24 hrs by LC-MS/MS analysis. The data set is classed as ADME, organism-based. More on the design: route oral, dose 10 mg/kg, time <=24. The note with it: in vivo.
The target in data set [12] is Vascular endothelial growth factor receptor 2 (Homo sapiens) (UniProt P35968). The data set is described as follows: Inhibition of human KDR (790 to end residues) assessed as residual activity at 0.5 uM using myelin basic protein as substrate after 40 mins by [gamma-33ATP] radiometric assay relative to control.
Chain of Vascular endothelial growth factor receptor 2 (Homo sapiens) (P35968 whole entry): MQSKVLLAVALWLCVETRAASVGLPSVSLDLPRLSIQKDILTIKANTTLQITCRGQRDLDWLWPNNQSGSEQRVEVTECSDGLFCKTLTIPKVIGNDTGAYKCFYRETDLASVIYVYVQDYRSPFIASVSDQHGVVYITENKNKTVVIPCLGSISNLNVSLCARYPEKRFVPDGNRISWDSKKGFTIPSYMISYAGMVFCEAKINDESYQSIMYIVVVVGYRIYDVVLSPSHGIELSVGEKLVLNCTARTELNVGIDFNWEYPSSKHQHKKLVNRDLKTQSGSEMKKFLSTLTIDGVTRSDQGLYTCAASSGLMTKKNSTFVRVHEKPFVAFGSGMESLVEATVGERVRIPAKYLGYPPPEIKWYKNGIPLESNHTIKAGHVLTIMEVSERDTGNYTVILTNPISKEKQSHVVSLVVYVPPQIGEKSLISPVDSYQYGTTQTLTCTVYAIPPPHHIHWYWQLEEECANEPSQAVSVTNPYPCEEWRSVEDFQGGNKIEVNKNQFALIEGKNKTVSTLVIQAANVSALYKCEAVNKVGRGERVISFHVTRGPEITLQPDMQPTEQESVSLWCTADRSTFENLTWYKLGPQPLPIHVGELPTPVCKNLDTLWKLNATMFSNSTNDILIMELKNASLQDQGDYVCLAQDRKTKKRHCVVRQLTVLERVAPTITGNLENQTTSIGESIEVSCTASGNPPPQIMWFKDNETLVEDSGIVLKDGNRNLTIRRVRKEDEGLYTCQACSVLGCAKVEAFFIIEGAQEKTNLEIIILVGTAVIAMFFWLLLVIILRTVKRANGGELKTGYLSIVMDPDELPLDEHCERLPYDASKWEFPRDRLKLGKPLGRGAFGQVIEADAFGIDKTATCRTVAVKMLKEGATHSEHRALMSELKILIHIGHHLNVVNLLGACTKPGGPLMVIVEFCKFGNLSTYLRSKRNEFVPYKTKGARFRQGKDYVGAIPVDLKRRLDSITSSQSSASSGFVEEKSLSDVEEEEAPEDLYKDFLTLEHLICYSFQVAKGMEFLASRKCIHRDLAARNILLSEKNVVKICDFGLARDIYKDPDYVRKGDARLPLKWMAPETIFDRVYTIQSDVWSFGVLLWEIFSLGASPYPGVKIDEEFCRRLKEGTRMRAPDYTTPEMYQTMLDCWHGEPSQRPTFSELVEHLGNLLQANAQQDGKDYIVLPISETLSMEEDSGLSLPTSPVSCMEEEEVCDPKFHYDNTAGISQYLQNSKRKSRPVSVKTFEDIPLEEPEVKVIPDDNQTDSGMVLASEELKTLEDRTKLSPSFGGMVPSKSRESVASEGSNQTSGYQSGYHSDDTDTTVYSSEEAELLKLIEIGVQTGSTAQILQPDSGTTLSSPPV
The test system of data set [13] is RAF proto-oncogene serine/threonine-protein kinase (Homo sapiens), P04049 [Y340D,Y341D]. Put plainly: Inhibition of recombinant human C-Raf Y340D/Y341D double mutant (306 to end residues) assessed as residual activity at 0.5 uM poly(Glu, Tyr) 4:1 as substrate incubated 40 mins in presence of [gamma-33ATP] by scintillation counting based radiometry assay relative to control.

A short description of data set [14]: cells. Conditions: Homo sapiens, MO-91.
Description: Antiproliferative activity against TrK fused human MO-91 cells
A short description of data set [15]: AUC (0 to t) in Sprague-Dawley rat at 10 mg/kg, po measured up to 24 hrs by LC-MS/MS analysis. The data set is classed as ADME, organism-based. The arrangement: route oral, dose 10 mg/kg, time <=24. Conditions: in vivo.
Data set [16] in a line: Toxicity in mouse xenografted with mouse BaF3 cells transfected with LMNA-NTRK1-G595R mutant assessed as unkempt appearance at 100 mg/kg, po administered once daily for 21 days and measured twice weekly. The note with it: in vivo, 504 h.
Data set [17] deals with BaF3. The data set is described as follows: Antitumor activity against mouse BaF3 cells transfected with ETV6-NTRK3 cells xenografted in mouse assessed as tumor growth inhibition at 100 mg/kg, po administered once daily for 21 days and measured twice weekly. The note with it: time 21.0 day.
A short description of data set [18]: Oral bioavailability in Sprague-Dawley rat at 10 mg/kg measured up to 24 hrs by LC/MS/MS analysis. The data set is classed as ADME, organism-based. The note with it: in vivo.
Data set [19] in a line: Toxicity in mouse xenografted with mouse BaF3 cells transfected with LMNA-NTRK1 assessed as unkempt appearance at 100 mg/kg, po administered once daily for 21 days and measured twice weekly. Conditions: in vivo, 504 h.

As usually defined, the Tmax is the time from dosing to the highest level. A word on the Cmax: it is the peak of the concentration-time curve. As for `O=C1NC2(CC2)COc2ncc(F)cc2[C@H]2COCCN2c2ccn3ncc1c3n2`, the C0 at 24 h in [1] stood at 4.12 µM. The Activity was 96% in data set [2]; 96% in data set [4]; 93% in [5]; 105% in data set [7]; 112% in data set [9]; 102% in data set [10]. Also, the values for the Activity in [12] and in [13] were 108% and 103%, respectively. The solubility kinetic in data set [3] turned out to be 193 µM (≈ 79.2 µg/mL). In data set [6], the result was Active. The Tmax in data set [8] was 40 min. The compound further had a peak concentration (Cmax) in data set [11] of 6.38 µM.

Broadly, the IC50 is the midpoint of a concentration-inhibition curve. Higher therefore signals weaker potency in that assay. A word on the AUC(0-t): it is exposure summed from dosing to a finite time, without extrapolation to infinity. What is called bioavailability is the share of a dose that reaches the circulation, judged against a reference dose that is usually intravenous. A low value points to poor availability. On to `C[C@@H]1CCc2ncc(F)cc2[C@H]2CCCN2c2ccn3ncc(c3n2)C(=O)N1` [SELITRECTINIB], for which the half-inhibitory concentration (IC50) in [14] is no more than 5 nM. Moreover, the AUC(0-t) at 24 h in data set [15] came to 27.3 µM·h. Also, the Activity entry in data set [16] and in data set [19] was “Toxic” in each case. Also, the outcome in data set [17] was Active. The bioavailability in data set [18] turned out to be 74%.
